Measured values published in patent publication US20260317309A1, “N-HETEROCYLIC GPCR RECEPTOR AGONISTS, PHARMACEUTICAL COMPOSITIONS COMPRISING THE SAME, AND METHODS FOR THEIR USE” (Carmot Therapeutics, Inc., priority 2022, published 2026).
pEC50: −log10 of the molar value.

The compounds below were run against T1, human GLP-1 receptor (Homo sapiens, UniProt P43220) (assay: GLP-1R cAMP assay (cAMP accumulation in CHO cells stably overexpressing the human GLP-1 receptor, HitHunter kit)). Conditions: CHO cells stably overexpressing human GLP-1R, 30 min, 20-point dose response in triplicate.
T1 construct: expressed in transfected cells
Assay type: cell-based
Method: CAMP accumulation was measured in Chinese hamster ovary (CHO) cells (10,000 cells/well) stably overexpressing the human GLP-1 receptor using the HitHunter CAMP Assay for Small Molecules Kit (Eurofins). Briefly, cells were grown in Ham's F12 Nutrient Mix with 10% FBS, and lifted with Cell Dissociation Buffer, Enzyme free, PBS based (ThermoFisher). Cells were pelleted, and resuspended in Hank's buffered saline solution with 10 mM HEPES, and 625 μM 3-isobutyl-1-methylxanthine. The anti-cAMP antibody reagent was then added to cells at a 1:2 ratio and 5 μL of mixture was seeded in 384-well small volume white assay plates, at 10,000 cells/well. Cells were then treated with 50 nL compound using an ECHO 550 acoustic dispenser (Labcyte) in a 20-point dose response format in triplicate for 30 min. Cells were then lysed, and detection reagents added according to the manufacturer's protocol. After overnight incubation, luminescence was measured using a Perkin Elmer Envision plate reader. Dose response curves were analyzed using GraphPad Prism 9.0.
In the Table, EC50 values are designated as follows: • A: 0 nM<EC50<0.1 nM; • B: 0.1 nM≤EC50<1.0 nM; • C: 1.0 nM≤EC50<10.0 nM; • D: 10.0 nM≤EC50<100 nM; • E: 100 nM≤EC50<500 nM; and • F: ≥500 nM

T1 sequence (P43220 24-463): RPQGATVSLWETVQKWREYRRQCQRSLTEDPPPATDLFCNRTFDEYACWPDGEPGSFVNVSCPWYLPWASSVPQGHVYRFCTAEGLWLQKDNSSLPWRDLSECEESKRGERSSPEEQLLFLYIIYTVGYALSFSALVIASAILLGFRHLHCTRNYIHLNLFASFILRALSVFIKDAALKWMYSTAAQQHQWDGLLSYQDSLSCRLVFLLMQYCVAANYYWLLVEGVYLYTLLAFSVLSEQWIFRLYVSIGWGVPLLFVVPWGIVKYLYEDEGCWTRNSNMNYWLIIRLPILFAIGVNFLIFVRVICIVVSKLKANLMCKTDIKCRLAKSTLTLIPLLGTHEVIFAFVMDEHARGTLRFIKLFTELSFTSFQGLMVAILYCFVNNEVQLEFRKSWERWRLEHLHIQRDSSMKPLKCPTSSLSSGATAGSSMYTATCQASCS

pEC50	SMILES
9.00 to 10.00	C[C@H]1C[C@@H](Oc2ccnc(COc3ncc(Cl)cc3F)n2)CCN1Cc1nc2ccc(C(=O)O)cc2n1CCOCC(F)(F)F [Compound 595, 2-{[(2S,4S)-4-[(2-{[(5-chloro-3-fluoropyridin-2-yl)oxy]methyl}pyrimidin-4-yl)oxy]-2-methylpiperidin-1-yl]methyl}-1-[2-(2,2,2-trifluoroethoxy)ethyl]-1H-1,3-benzodiazole-6-carboxylic acid]
> 10.00	C[C@H]1C[C@@H](Oc2ccnc(COc3ccc(C#N)cc3F)n2)CCN1Cc1nc2ccc(C(=O)O)cc2n1CCOCC(F)(F)F [Compound 596, 2-{[(2S,4S)-4-({2-[(4-Cyano-2-fluorophenoxy)methyl]pyrimidin-4-yl}oxy)-2-methylpiperidin-1-yl]methyl}-1-[2-(2,2,2-trifluoroethoxy)ethyl]-1H-1,3-benzodiazole-6-carboxylic acid]
> 10.00	C[C@H]1C[C@@H](Oc2ccnc(COc3ncc(Cl)cc3F)n2)CCN1Cc1nc2c(F)cc(C(=O)O)cc2n1C[C@@H]1CCO1 [Compound 597, 2-{[(2S,4S)-4-[(2-{[(5-Chloro-3-fluoropyridin-2-yl)oxy]methyl}pyrimidin-4-yl)oxy]-2-methylpiperidin-1-yl]methyl}-4-fluoro-1-{[(2S)-oxetan-2-yl]methyl}-1H-1,3-benzodiazole-6-carboxylic acid]
9.00 to 10.00	C[C@@H](Cn1c(CN2CC[C@H](Oc3ccnc(COc4ccc(F)cc4F)n3)C[C@@H]2C)nc2ccc(C(=O)O)cc21)OCC(F)(F)F [Compound 598, 2-{[(2S,4S)-4-({2-[(2,4-Difluorophenoxy)methyl]pyrimidin-4-yl}oxy)-2-methylpiperidin-1-yl]methyl}-1-[(2S)-2-(2,2,2-trifluoroethoxy)propyl]-1H-1,3-benzodiazole-6-carboxylic acid]
9.00 to 10.00	N#Cc1ccc(OCc2nccc(O[C@H]3CCN(Cc4nc5ccc(C(=O)O)cc5n4C[C@@H]4CCO4)[C@@H](C(F)(F)F)C3)n2)c(F)c1 [Compound 599, 2-{[(2R,4S)-4-({2-[(4-cyano-2-fluorophenoxy)methyl]pyrimidin-4-yl}oxy)-2-(trifluoromethyl)piperidin-1-yl]methyl}-1-{[(2S)-oxetan-2-yl]methyl}-1H-1,3-benzodiazole-6-carboxylic acid]
9.00 to 10.00	COC1(Cn2c(CN3CC[C@H](Oc4ccnc(COc5ccc(F)cc5F)n4)C[C@@H]3C)nc3ccc(C(=O)O)cc32)CCC1 [Compound 600, 2-{[(2S,4S)-4-({2-[(2,4-Difluorophenoxy)methyl]pyrimidin-4-yl}oxy)-2-methylpiperidin-1-yl]methyl}-1-[(1-methoxycyclobutyl)methyl]-1H-1,3-benzodiazole-6-carboxylic acid]
> 10.00	C[C@H]1C[C@@H](Oc2ccnc(COc3ccc(F)cc3C#N)n2)CCN1Cc1nc2ccc(C(=O)O)cc2n1CCOCC(F)(F)F [Compound 601, 2-{[(2S,4S)-4-({2-[(2-cyano-4-fluorophenoxy)methyl]pyrimidin-4-yl}oxy)-2-methylpiperidin-1-yl]methyl}-1-[2-(2,2,2-trifluoroethoxy)ethyl]-1H-1,3-benzodiazole-6-carboxylic acid]
9.00 to 10.00	C[C@H](Cn1c(CN2CC[C@H](Oc3ccnc(COc4ncc(Cl)cc4F)n3)C[C@@H]2C)nc2ccc(C(=O)O)cc21)OC(F)F [Compound 602, 2-{[(2S,4S)-4-[(2-{[(5-Chloro-3-fluoropyridin-2-yl)oxy]methyl}pyrimidin-4-yl)oxy]-2-methylpiperidin-1-yl]methyl}-1-[(2R)-2-(difluoromethoxy)propyl]-1H-1,3-benzodiazole-6-carboxylic acid]
> 10.00	C[C@H]1C[C@@H](Oc2ccnc(COc3ccc(Cl)cn3)n2)CCN1Cc1nc2c(F)cc(C(=O)O)cc2n1C[C@@H]1CCO1 [Compound 603, 2-{[(2S,4S)-4-[(2-{[(5-Chloropyridin-2-yl)oxy]methyl}pyrimidin-4-yl)oxy]-2-methylpiperidin-1-yl]methyl}-4-fluoro-1-{[(2S)-oxetan-2-yl]methyl}-1H-1,3-benzodiazole-6-carboxylic acid]
9.00 to 10.00	C[C@H]1C[C@@H](Oc2ccnc(COc3ccc(C#N)cn3)n2)CCN1Cc1nc2c(F)cc(C(=O)O)cc2n1C[C@@H]1CCO1 [Compound 604, 2-{[(2S,4S)-4-[(2-{[(5-cyanopyridin-2-yl)oxy]methyl}pyrimidin-4-yl)oxy]-2-methylpiperidin-1-yl]methyl}-4-fluoro-1-{[(2S)-oxetan-2-yl]methyl}-1H-1,3-benzodiazole-6-carboxylic acid]
> 10.00	O=C(O)c1cc(F)c2nc(CN3CCC(Oc4ccnc(COc5ncc(Cl)cc5F)n4)CC3)n(C[C@@H]3CCO3)c2c1 [Compound 605, 2-({4-[(2-{[(5-Chloro-3-fluoropyridin-2-yl)oxy]methyl}pyrimidin-4-yl)oxy]piperidin-1-yl}methyl)-4-fluoro-1-{[(2S)-oxetan-2-yl]methyl}-1H-1,3-benzodiazole-6-carboxylic acid]
> 10.00	C[C@H]1C[C@@H](Oc2ccnc(COc3ncc(F)cc3F)n2)CCN1Cc1nc2c(F)cc(C(=O)O)cc2n1C[C@@H]1CCO1 [Compound 606, 2-(((2S,4S)-4-((2-(((3,5-difluoropyridin-2-yl)oxy)methyl)pyrimidin-4-yl)oxy)-2-methylpiperidin-1-yl)methyl)-4-fluoro-1-(((S)-oxetan-2-yl)methyl)-1H-benzo[d]imidazole-6-carboxylic acid]
> 10.00	C[C@H]1C[C@@H](Oc2ccnc(COc3ncc(C#N)cc3F)n2)CCN1Cc1nc2c(F)cc(C(=O)O)cc2n1C[C@@H]1CCO1 [Compound 607, 2-{[(2S,4S)-4-[(2-{[(5-Cyano-3-fluoropyridin-2-yl)oxy]methyl}pyrimidin-4-yl)oxy]-2-methylpiperidin-1-yl]methyl}-4-fluoro-1-[(oxetan-2-yl)methyl]-1H-1,3-benzodiazole-6-carboxylic acid]
9.00 to 10.00	CC[C@H]1C[C@@H](Oc2ccnc(COc3ncc(Cl)cc3F)n2)CCN1Cc1nc2ccc(C(=O)O)cc2n1C[C@@H]1CCO1 [Compound 608, 2-{[(2S,4S)-4-[(2-{[(5-Chloro-3-fluoropyridin-2-yl)oxy]methyl}pyrimidin-4-yl)oxy]-2-ethylpiperidin-1-yl]methyl}-1-[(oxetan-2-yl)methyl]-1H-1,3-benzodiazole-6-carboxylic acid]
7.00 to 8.00	CC[C@@H]1C[C@H](Oc2ccnc(COc3ncc(Cl)cc3F)n2)CCN1Cc1nc2ccc(C(=O)O)cc2n1C[C@@H]1CCO1 [Compound 609, 2-{[(2R,4R)-4-[(2-{[(5-Chloro-3-fluoropyridin-2-yl)oxy]methyl}pyrimidin-4-yl)oxy]-2-ethylpiperidin-1-yl]methyl}-1-[(oxetan-2-yl)methyl]-1H-1,3-benzodiazole-6-carboxylic acid]
9.00 to 10.00	C[C@H]1C[C@@H](Oc2ccnc(COc3ccc(F)cc3F)n2)CCN1Cc1nc2ccc(C(=O)O)cc2n1C[C@H]1CCS1(=O)=O [Compound 610, 2-(((2S,4S)-4-((2-((2,4-difluorophenoxy)methyl)pyrimidin-4-yl)oxy)-2-methylpiperidin-1-yl)methyl)-1-(((R)-1,1-dioxidothietan-2-yl)methyl)-1H-benzo[d]imidazole-6-carboxylic acid]
9.00 to 10.00	C[C@H]1C[C@@H](Oc2ccnc(COc3ccc(F)cc3F)n2)CCN1Cc1nc2ccc(C(=O)O)cc2n1C[C@@H]1CCS1(=O)=O [Compound 611, 2-(((2S,4S)-4-((2-((2,4-difluorophenoxy)methyl)pyrimidin-4-yl)oxy)-2-methylpiperidin-1-yl)methyl)-1-(((S)-1,1-dioxidothietan-2-yl)methyl)-1H-benzo[d]imidazole-6-carboxylic acid]
8.00 to 9.00	C[C@@H](Cn1c(CN2CC[C@H](Oc3ccnc(COc4ccc(F)cc4F)n3)C[C@@H]2C)nc2ccc(C(=O)O)cc21)OC1CC1 [Compound 612, 1-((S)-2-cyclopropoxypropyl)-2-(((2S,4S)-4-((2-((2,4-difluorophenoxy)methyl)pyrimidin-4-yl)oxy)-2-methylpiperidin-1-yl)methyl)-1H-benzo[d]imidazole-6-carboxylic acid]
9.00 to 10.00	O=C(O)c1cc(F)c2nc(CN3CCC(Oc4ccnc(COc5ncc(Cl)cc5F)c4)CC3)n(C[C@@H]3CCO3)c2c1 [Compound 613, (S)-2-((4-((2-(((5-Chloro-3-fluoropyridin-2-yl)oxy)methyl)pyridin-4-yl)oxy)piperidin-1-yl)methyl)-4-fluoro-1-(oxetan-2-ylmethyl)-1H-benzo[d]imidazole-6-carboxylic acid]
9.00 to 10.00	C[C@H]1C[C@@H](Oc2ccnc(NCc3ccc(F)cc3F)n2)CCN1Cc1nc2ccc(C(=O)O)cc2n1C[C@@H]1CCO1 [Compound 614, 2-(((2S,4S)-4-((2-((2,4-Difluorobenzyl)amino)pyrimidin-4-yl)oxy)-2-methylpiperidin-1-yl)methyl)-1-(((S)-oxetan-2-yl)methyl)-1H-benzo[d]imidazole-6-carboxylic acid]
9.00 to 10.00	C[C@H]1C[C@@H](Oc2ccnc(COc3ncc(Cl)cc3F)c2)CCN1Cc1nc2ccc(C(=O)O)cc2n1C[C@@H]1CCO1 [Compound 615, 2-(((2S,4S)-4-((2-(((5-Chloro-3-fluoropyridin-2-yl)oxy)methyl)pyridin-4-yl)oxy)-2-methylpiperidin-1-yl)methyl)-1-(((S)-oxetan-2-yl)methyl)-1H-benzo[d]imidazole-6-carboxylic acid]
